Columns and labels:
[1] = Single solvent slurries of (Z)-endoxifen (XRPD of recovered solid); format: physicochemical
Description: Further solubility analyses were then performed for solvents which formed suspensions at 50° C. […] The suspensions were recovered and filtered with a nylon filter (0.22 μm) during centrifugation at 4000 rpm for 3 minutes. The solid (Z)-endoxifen collected through filtration was analyzed by XRPD. (Z)-endoxifen remaining in the filtrate was precipitated by addition of antisolvent and also subjected to XRPD analysis.

[2] = Scale-up crystallizations of (Z)-endoxifen Form I, Form IV, Form VII (XRPD); format: physicochemical; settings: ethyl acetate 0.8 mL sat, heptane 4 mL, RT to −20 °C, 1 d
Description: The acetonitrile slurry method for generating Form I (EXAMPLE 5) was performed on a 800 mg-scale. For this crystallization, 800 mg (Z)-endoxifen was partially dissolved in 8 ml acetonitrile at a concentration of 100 mg/ml and left under magnetic stirring at 50° C. for 2 days. Solid (Z)-endoxifen was collected from the slurry and analyzed by XRPD, confirming that the resultant solid was Form I. The remaining slurry was then filtered with a 0.45p m paper filter under vacuum and analyzed by XRPD, which indicated a yield of 94% for the resultant Form I
The EXAMPLE 6 procedure for generating Form IV by precipitation from 2-propanol/ethyl acetate (50/50 v/v) systems was scaled to both 500 mg and 1 g. For these crystallizations, (Z)-endoxifen was added to 2-propanol/ethyl acetate 50/50 (v/v) mixtures to achieve concentrations of 100 mg/ml. The solvent mixtures were then heated to 65° C. Once complete dissolution of (Z)-endoxifen occurred, the solvent mixtures were cooled to 25° C. at a rate of 0.2° C./minute. The solutions were maintained at 25° C. with stirring for 18 hours, and then vacuum filtered with a 0.45 μm paper filter.
The ethyl acetate:heptane crystallizations outlined in EXAMPLE 10 were repeated at larger scales. […]

[3] = SLHT-1D-ACN(100 mg/ml) - Form I reference, FIG. 76: acetonitrile, 100 mg/mL, 50° C., 1 d
[4] = SLHT-1D-ACT(100 mg/ml), FIG. 77: acetone, 100 mg/mL, 40° C., 1 d
[5] = SLRT-14D-BME, FIG. 74: butyl methyl ether, 10 mg/mL, RT, 14 d

With CC/C(=C(\c1ccc(O)cc1)c1ccc(OCCNC)cc1)c1ccccc1 [(Z)-endoxifen, (Z)-4-(1-(4-(2-(methylamino)ethoxy)phenyl)-2-phenylbut-1-enyl)phenol] the “Output Main phase [phase]” value ([1]; SLHT-1D-ACN(50 mg/ml), FIG. 80: acetonitrile, 50 mg/mL, 50° C., 1 d) was “Form I”, the “Output Main phase [phase]” value ([1]; SLHT-1D-ACN(50 mg/ml)-vial attached, FIG. 92: acetonitrile, 50 mg/mL, 50° C., 1 d) was “Form I” and the “Output Crystallinity [high/low/SC/oriented]” value [1, 3] was “high”. The “Output Main phase [phase]” value [1, 3] was “Form I”, the “Output Main phase [phase]” value ([1]; SLHT-1D-ACT(50 mg/ml), FIG. 80: acetone, 50 mg/mL, 40° C., 1 d) was “Form I” and the “Output Crystallinity [high/low/SC/oriented]” value [1, 4] was “high”. For the same compound, the “Output Main phase [phase]” value [1, 4] was “Form I”, the “Output Main phase [phase]” value ([1]; SLHT-1D-BME, FIG. 75: butyl methyl ether, 10 mg/mL, 40° C., 1 d) was “Form I” and the “Output Main phase [phase]” value ([1]; SLHT-1D-H2O, FIG. 75: water, 10 mg/mL, 50° C., 1 d) was “Form I”. The “Output Main phase [phase]” value ([1]; SLHT-1D-HEP, FIG. 75: heptane, 10 mg/mL, 50° C., 1 d) was “Form I”, the “Output Main phase [phase]” value ([1]; SLRT-1D-DMF(300 mg/ml), FIG. 81: dimethylformamide, 300 mg/mL, RT, 1 d) was “Form I” and the “Output Main phase [phase]” value ([1]; SLRT-1D-ETA(20 mg/ml), FIG. 81: ethyl acetate, 20 mg/mL, RT, 1 d) was “Form I”. For the same compound, the “Output Main phase [phase]” value ([1]; SLRT-2D-THF(170 mg/ml), FIG. 81: tetrahydrofuran, 169.7 mg/mL, RT, 2 d) was “Form I”, the “Output Main phase [phase]” value ([1]; SLRT-3D-ACT(40 mg/ml), FIG. 78: acetone, 40 mg/mL, RT, 3 d) was “Form I” and the “Output Main phase [phase]” value ([1]; SLRT-3D-BME, FIG. 73: butyl methyl ether, 10 mg/mL, RT, 3 d) was “Form I”. The “Output Main phase [phase]” value ([1]; SLRT-3D-ETH(40 mg/ml), FIG. 78: ethanol, 40 mg/mL, RT, 3 d) was “Form I”, the “Output Main phase [phase]” value ([1]; SLRT-3D-H2O, FIG. 73: water, 10 mg/mL, RT, 3 d) was “Form I” and the “Output Main phase [phase]” value ([1]; SLRT-3D-HEP, FIG. 73: heptane, 10 mg/mL, RT, 3 d) was “Form I”. For the same compound, the “Output Main phase [phase]” value ([1]; SLRT-6HRS-ACT(40 mg/ml), FIG. 81: acetone, 40 mg/mL, RT, 6 h) was “Form I”, the “Output Main phase [phase]” value ([1]; SLRT-14D-2PR(100 mg/ml), FIG. 83: 2-propanol, 100 mg/mL, RT, 14 d) was “Form I” and the “Output Main phase [phase]” value ([1]; SLRT-14D-ACN(100 mg/ml), FIG. 83: acetonitrile, 100 mg/mL, RT, 14 d) was “Form I”. For the same compound, the “Output Main phase [phase]” value ([1]; SLRT-14D-ACT(40 mg/ml), FIG. 79: acetone, 40 mg/mL, RT, 14 d) was “Form I”, the “Output Main phase [phase]” value ([1]; SLRT-14D-ACT(100 mg/ml), FIG. 83: acetone, 100 mg/mL, RT, 14 d) was “Form I” and the “Output Main phase [phase]” value ([1]; SLRT-14D-BAC(100 mg/ml), FIG. 82: butyl acetate, 100 mg/mL, RT, 14 d) was “Form I”. For the same compound, the “Output Crystallinity [high/low/SC/oriented]” value [1, 5] was “low”, the “Output Main phase [phase]” value [1, 5] was “Form I” and the “Output Main phase [phase]” value ([1]; SLRT-14D-ETA(100 mg/ml), FIG. 82: ethyl acetate, 100 mg/mL, RT, 14 d) was “Form I”. The “Output Main phase [phase]” value ([1]; SLRT-14D-ETH(40 mg/ml), FIG. 79: ethanol, 40 mg/mL, RT, 14 d) was “Form I”, the “Output Main phase [phase]” value ([1]; SLRT-14D-ETH(100 mg/ml), FIG. 82: ethanol, 100 mg/mL, RT, 14 d) was “Form I” and the “Output Main phase [phase]” value ([1]; SLRT-14D-H2O, FIG. 74: water, 10 mg/mL, RT, 14 d) was “Form I”. For the same compound, the “Output Main phase [phase]” value ([1]; SLRT-14D-HEP, FIG. 74: heptane, 10 mg/mL, RT, 14 d) was “Form I”, the “Output Main phase [phase]” value ([1]; SLRT-14D-MET(50 mg/ml), FIG. 84: methanol, 50 mg/mL, RT, 14 d) was “Form I” and the “Output Main phase [phase]” value ([1]; SLRT-14D-MIBK(100 mg/ml), FIG. 82: methyl isobutyl ketone, 100 mg/mL, RT, 14 d) was “Form I”. The “Output Main phase [phase]” value ([1]; SLRT-14D-TOL(100 mg/ml), FIG. 83: toluene, 100 mg/mL, RT, 14 d) was “Form I”, the “Polymorphic form recovered (XRPD)” value ([1]; all single solvent slurries) was “Form I” and the “XRPD Results Phase in traces” value ([2]; PAD-GRAD) was “Form XVI”. For the same compound, the “XRPD Results Phase in traces” value ([2]; PAI-GRAD) was “Form IX”.

Source: patent US20250066286A1, “COMPOSITIONS OF (Z)-ENDOXIFEN AND METHODS OF ENRICHMENT THEREOF” (Atossa Therapeutics, Inc., priority 2022, published 2025)
